In patent US6737383B1, “Herbicidal oxadiazolidines” (priority 1999, dated 2004):

Legend:
surinam grass = assay: Test B pre/postemergence surinam grass; type: in vivo, Brachiaria decumbens; conditions: for B. signalgrass plant response rating (0 to 10 scale): 0 is no effect
Method in brief: (§1)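 Herbicidal effect was estimated by eye on a ten-point control scale after plants spent twelve to sixteen days in a greenhouse following soil or foliar treatment. Foliar sprays targeted plants at one to four leaves; all doses were formulated in a non-phytotoxic solvent with surfactant.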

cocklebur = assay: Test B pre/postemergence cocklebur; type: in vivo, Xanthium strumarium; conditions: for Cocklebur plant response rating (0 to 10 scale): 0 is no effect
Method in brief: as §1

corn = assay: Test B pre/postemergence corn; type: in vivo, Zea mays; conditions: for Corn plant response rating (0 to 10 scale): 0 is no effect
Method in brief: as §1

crabgrass = assay: Test B pre/postemergence crabgrass; type: in vivo, Digitaria sanguinalis; conditions: for Crabgrass plant response rating (0 to 10 scale): 0 is no effect
Method in brief: as §1

giant foxtail = assay: Test B pre/postemergence giant foxtail; type: in vivo, Setaria faberii; conditions: for Giant foxtail plant response rating (0 to 10 scale): 0 is no effect
Method in brief: as §1

morningglory = assay: Test B pre/postemergence morningglory; type: in vivo, Ipomoea hederacea; conditions: for Morningglory plant response rating (0 to 10 scale): 0 is no effect
Method in brief: as §1

pigweed = assay: Test B pre/postemergence pigweed; type: in vivo, Amaranthus retroflexus; conditions: for Redroot pigweed plant response rating (0 to 10 scale): 0 is no effect
Method in brief: as §1

rape = assay: Test B pre/postemergence rape; type: in vivo, Brassica napus; conditions: for Rape plant response rating (0 to 10 scale): 0 is no effect
Method in brief: as §1

sugar beet = assay: Test B pre/postemergence sugar beet; type: in vivo, Beta vulgaris; conditions: for Sugarbeets plant response rating (0 to 10 scale): 0 is no effect
Method in brief: as §1

wheat = assay: Test B pre/postemergence wheat; type: in vivo, Triticum aestivum; conditions: for Wheat plant response rating (0 to 10 scale): Rate 125 g/ha, 0 is no effect
Method in brief: as §1

wild oat = assay: Test B pre/postemergence wild oat; type: in vivo, Avena fatua; conditions: for Wild oats plant response rating (0 to 10 scale): Rate 125 g/ha, 0 is no effect
Method in brief: as §1

purple nutsedge = assay: Test B pre/postemergence purple nutsedge; type: in vivo, Cyperus rotundus; conditions: for Nutsedge plant response rating (0 to 10 scale): 0 is no effect
Method in brief: as §1

[1] = Postemergence, Rate 125 g/ha, scale of 0 to 10 where 0 is no effect and 10 is complete control
[2] = Preemergence, Rate 62 g/ha, scale of 0 to 10 where 0 is no effect and 10 is complete control
[3] = Preemergence, Rate 125 g/ha, 10 is complete control
[4] = Preemergence, Rate 250 g/ha, scale 0 to 10, 0 is no effect, 10 is complete control
[5] = Preemergence, Rate 500 g/ha, scale 0 to 10 (0 no effect, 10 complete control)
[6] = Rate 62 g/ha, Postemergence, scale of 0 to 10 where 0 is no effect and 10 is complete control
[7] = Rate 250 g/ha, Postemergence, scale 0 to 10, 0 is no effect, 10 is complete control
[8] = Rate 500 g/ha, Postemergence, scale 0 to 10, 0 no effect, 10 complete control
[9] = Rate 500 g/ha, Postemergence, scale 0 to 10
[10] = Preemergence, 10 is complete control

CC(C)N(C(=O)n1oc(=O)n([C@@H](C)c2ccccc2)c1=O)c1ccc(F)cc1 [Compound 167]
B. signalgrass plant response rating (surinam grass; [1]): 0 | B. signalgrass plant response rating (surinam grass; [2]): 2 | B. signalgrass plant response rating (0 to 10 scale) (surinam grass; [3]): 5 | B. signalgrass plant response rating (surinam grass; [4]): 5 | B. signalgrass plant response rating (surinam grass; [5]): 8 | B. signalgrass plant response rating (surinam grass; [6]): 0 | Plant response rating, B. signalgrass (surinam grass; [7]): 0 | B. signalgrass plant response rating (surinam grass; [8]): 0 | Cocklebur plant response rating (cocklebur; [1]): 0 | Cocklebur plant response rating (cocklebur; [2]): 0 | Cocklebur plant response rating (0 to 10 scale) (cocklebur; [3]): 0 | Cocklebur plant response rating (cocklebur; [4]): 0 | Cocklebur plant response rating (cocklebur; [5]): 0 | Cocklebur plant response rating (cocklebur; [6]): 0 | Plant response rating, Cocklebur (cocklebur; [7]): 0 | Cocklebur plant response rating (cocklebur; [9]): 2 | Corn plant response rating (corn; [1]): 0 | Corn plant response rating (corn; [2]): 0 | Corn plant response rating (0 to 10 scale) (corn; [3]): 0 | Corn plant response rating (corn; [4]): 0 | Corn plant response rating (corn; [5]): 0 | Corn plant response rating (corn; [6]): 0 | Plant response rating, Corn (corn; [7]): 0 | Corn plant response rating (corn; [9]): 0 | Crabgrass plant response rating (crabgrass; [1]): 3 | Crabgrass plant response rating (crabgrass; [2]): 7 | Crabgrass plant response rating (0 to 10 scale) (crabgrass; [3]): 8 | Crabgrass plant response rating (crabgrass; [4]): 10 | Crabgrass plant response rating (crabgrass; [5]): 10 | Crabgrass plant response rating (crabgrass; [6]): 0 | Plant response rating, Crabgrass (crabgrass; [7]): 9 | Crabgrass plant response rating (crabgrass; [9]): 9 | Giant foxtail plant response rating (giant foxtail; [1]): 0 | Giant foxtail plant response rating (giant foxtail; [2]): 8 | Giant foxtail plant response rating (0 to 10 scale) (giant foxtail; [3]): 9 | Giant foxtail plant response rating (giant foxtail; [4]): 10 | Giant foxtail plant response rating (giant foxtail; [5]): 10 | Giant foxtail plant response rating (giant foxtail; [6]): 0 | Plant response rating, Giant foxtail (giant foxtail; [7]): 0 | Giant foxtail plant response rating (giant foxtail; [9]): 0 | Morningglory plant response rating (morningglory; [1]): 5 | Morningglory plant response rating (morningglory; [2]): 0 | Morningglory plant response rating (0 to 10 scale) (morningglory; [3]): 0 | Morningglory plant response rating (morningglory; [4]): 0 | Morningglory plant response rating (morningglory; [5]): 0 | Morningglory plant response rating (morningglory; [6]): 2 | Plant response rating, Morningglory (morningglory; [7]): 5 | Morningglory plant response rating (morningglory; [9]): 8 | Redroot pigweed plant response rating (pigweed; [1]): 0 | Redroot pigweed plant response rating (pigweed; [2]): 0 | Redroot pigweed plant response rating (0 to 10 scale) (pigweed; [3]): 6 | Redroot pigweed plant response rating (pigweed; [4]): 8 | Redroot pigweed plant response rating (pigweed; [5]): 8 | Redroot pigweed plant response rating (pigweed; [6]): 0 | Plant response rating, Redroot pigweed (pigweed; [7]): 3 | Redroot pigweed plant response rating (pigweed; [9]): 7 | Rape plant response rating (rape; [1]): 0 | Rape plant response rating (rape; [2]): 0 | Rape plant response rating (0 to 10 scale) (rape; [3]): 0 | Rape plant response rating (rape; [4]): 0 | Rape plant response rating (rape; [5]): 5 | Rape plant response rating (rape; [6]): 0 | Plant response rating, Rape (rape; [7]): 0 | Rape plant response rating (rape; [9]): 0 | Sugarbeets plant response rating (sugar beet; [1]): 0 | Sugarbeets plant response rating (sugar beet; [2]): 0 | Sugarbeets plant response rating (0 to 10 scale) (sugar beet; [3]): 2 | Sugarbeets plant response rating (sugar beet; [4]): 5 | Sugarbeets plant response rating (sugar beet; [5]): 5 | Sugarbeets plant response rating (sugar beet; [6]): 0 | Plant response rating, Sugarbeets (sugar beet; [7]): 0 | Sugarbeets plant response rating (sugar beet; [9]): 0 | Wheat plant response rating (wheat; [2]): 0 | Wheat plant response rating (0 to 10 scale) (wheat; [10]): 0 | Wheat plant response rating (wheat; [4]): 0 | Wheat plant response rating (wheat; [5]): 0 | Plant response rating, Wheat (wheat; [7]): 0 | Wheat plant response rating (wheat; [9]): 0 | Wild oats plant response rating (wild oat; [2]): 0 | Wild oats plant response rating (0 to 10 scale) (wild oat; [10]): 0 | Wild oats plant response rating (wild oat; [4]): 3 | Wild oats plant response rating (wild oat; [5]): 6 | Plant response rating, Wild oats (wild oat; [7]): 0 | Wild oats plant response rating (wild oat; [9]): 0 | Nutsedge plant response rating (purple nutsedge; [1]): 0 | Nutsedge plant response rating (purple nutsedge; [2]): 0 | Nutsedge plant response rating (0 to 10 scale) (purple nutsedge; [3]): 0 | Nutsedge plant response rating (purple nutsedge; [4]): 0 | Nutsedge plant response rating (purple nutsedge; [5]): 0 | Nutsedge plant response rating (purple nutsedge; [6]): 0 | Plant response rating, Nutsedge (purple nutsedge; [7]): 0 | Nutsedge plant response rating (purple nutsedge; [9]): 0

CC1CCCCC1n1c(=O)on(C(=O)N(c2ccccc2)C(C)C)c1=O (stereo not shown) [Compound 162]
B. signalgrass plant response rating (surinam grass; [1]): 0 | B. signalgrass plant response rating (surinam grass; [2]): 0 | B. signalgrass plant response rating (0 to 10 scale) (surinam grass; [3]): 2 | B. signalgrass plant response rating (surinam grass; [4]): 3 | B. signalgrass plant response rating (surinam grass; [5]): 7 | B. signalgrass plant response rating (surinam grass; [6]): 0 | Plant response rating, B. signalgrass (surinam grass; [7]): 0 | B. signalgrass plant response rating (surinam grass; [8]): 4 | Cocklebur plant response rating (cocklebur; [1]): 0 | Cocklebur plant response rating (cocklebur; [2]): 0 | Cocklebur plant response rating (0 to 10 scale) (cocklebur; [3]): 0 | Cocklebur plant response rating (cocklebur; [4]): 0 | Cocklebur plant response rating (cocklebur; [5]): 0 | Cocklebur plant response rating (cocklebur; [6]): 0 | Plant response rating, Cocklebur (cocklebur; [7]): 0 | Cocklebur plant response rating (cocklebur; [9]): 2 | Corn plant response rating (corn; [1]): 0 | Corn plant response rating (corn; [2]): 0 | Corn plant response rating (0 to 10 scale) (corn; [3]): 0 | Corn plant response rating (corn; [4]): 0 | Corn plant response rating (corn; [5]): 0 | Corn plant response rating (corn; [6]): 0 | Plant response rating, Corn (corn; [7]): 0 | Corn plant response rating (corn; [9]): 0 | Crabgrass plant response rating (crabgrass; [1]): 2 | Crabgrass plant response rating (crabgrass; [2]): 6 | Crabgrass plant response rating (0 to 10 scale) (crabgrass; [3]): 8 | Crabgrass plant response rating (crabgrass; [4]): 9 | Crabgrass plant response rating (crabgrass; [5]): 10 | Crabgrass plant response rating (crabgrass; [6]): 0 | Plant response rating, Crabgrass (crabgrass; [7]): 6 | Crabgrass plant response rating (crabgrass; [9]): 8 | Giant foxtail plant response rating (giant foxtail; [1]): 2 | Giant foxtail plant response rating (giant foxtail; [2]): 7 | Giant foxtail plant response rating (0 to 10 scale) (giant foxtail; [3]): 7 | Giant foxtail plant response rating (giant foxtail; [4]): 9 | Giant foxtail plant response rating (giant foxtail; [5]): 9 | Giant foxtail plant response rating (giant foxtail; [6]): 0 | Plant response rating, Giant foxtail (giant foxtail; [7]): 2 | Giant foxtail plant response rating (giant foxtail; [9]): 3 | Morningglory plant response rating (morningglory; [1]): 6 | Morningglory plant response rating (morningglory; [2]): 0 | Morningglory plant response rating (0 to 10 scale) (morningglory; [3]): 0 | Morningglory plant response rating (morningglory; [4]): 0 | Morningglory plant response rating (morningglory; [5]): 0 | Morningglory plant response rating (morningglory; [6]): 6 | Plant response rating, Morningglory (morningglory; [7]): 10 | Morningglory plant response rating (morningglory; [9]): 10 | Redroot pigweed plant response rating (pigweed; [1]): 0 | Redroot pigweed plant response rating (pigweed; [2]): 0 | Redroot pigweed plant response rating (0 to 10 scale) (pigweed; [3]): 0 | Redroot pigweed plant response rating (pigweed; [4]): 0 | Redroot pigweed plant response rating (pigweed; [5]): 7 | Redroot pigweed plant response rating (pigweed; [6]): 0 | Plant response rating, Redroot pigweed (pigweed; [7]): 0 | Redroot pigweed plant response rating (pigweed; [9]): 0 | Rape plant response rating (rape; [1]): 0 | Rape plant response rating (rape; [2]): 0 | Rape plant response rating (0 to 10 scale) (rape; [3]): 2 | Rape plant response rating (rape; [4]): 4 | Rape plant response rating (rape; [5]): 9 | Rape plant response rating (rape; [6]): 0 | Plant response rating, Rape (rape; [7]): 0 | Rape plant response rating (rape; [9]): 0 | Sugarbeets plant response rating (sugar beet; [1]): 0 | Sugarbeets plant response rating (sugar beet; [2]): 0 | Sugarbeets plant response rating (0 to 10 scale) (sugar beet; [3]): 0 | Sugarbeets plant response rating (sugar beet; [4]): 0 | Sugarbeets plant response rating (sugar beet; [5]): 0 | Sugarbeets plant response rating (sugar beet; [6]): 0 | Plant response rating, Sugarbeets (sugar beet; [7]): 0 | Sugarbeets plant response rating (sugar beet; [9]): 0 | Wheat plant response rating (wheat; [2]): 0 | Wheat plant response rating (0 to 10 scale) (wheat; [10]): 0 | Wheat plant response rating (wheat; [4]): 0 | Wheat plant response rating (wheat; [5]): 0 | Plant response rating, Wheat (wheat; [7]): 0 | Wheat plant response rating (wheat; [9]): 0 | Wild oats plant response rating (wild oat; [2]): 0 | Wild oats plant response rating (0 to 10 scale) (wild oat; [10]): 0 | Wild oats plant response rating (wild oat; [4]): 2 | Wild oats plant response rating (wild oat; [5]): 5 | Plant response rating, Wild oats (wild oat; [7]): 0 | Wild oats plant response rating (wild oat; [9]): 4 | Nutsedge plant response rating (purple nutsedge; [1]): 0 | Nutsedge plant response rating (purple nutsedge; [2]): 0 | Nutsedge plant response rating (0 to 10 scale) (purple nutsedge; [3]): 0 | Nutsedge plant response rating (purple nutsedge; [4]): 0 | Nutsedge plant response rating (purple nutsedge; [5]): 0 | Nutsedge plant response rating (purple nutsedge; [6]): 0 | Plant response rating, Nutsedge (purple nutsedge; [7]): 0 | Nutsedge plant response rating (purple nutsedge; [9]): 2
